Laboratory results taken from patent US7241579B2, “Method of screening for GPR40 ligands” (SmithKline Beecham Corporation, priority 2000, dated 2007).
Where two headings read alike, the source gives them in different places.

Assays:
Type in all cases: cell-based
human GPR40 [1] = molecular target: T1, human GPR40 (Homo sapiens, UniProt O14842); assay: GAL4/Elk-1-luciferase reporter in CHO clones transfected with human GPR40, with and without pertussis toxin; set-up: expressed in transfected cells
From the text: (§1) To further test the coupling of GPR40 to Gαi/Gαq a Gal4/Elk-1 reporter was used. A stable, clonal reporter line was created by transfecting CHO cells with a plasmid that contains an expression construct for GAL4/Elk-1 and a GAL4-luciferase reporter construct. A similar reporter system can now be purchased from Stratagene (under the trademark […]®). An expression construct for human GPR40 which contains a G418 resistance construct was transfected into the host CHO GAL4/Elk-1 reporter cell line (10 ug plasmid DNA pCR3-GPR40) via electroporation. The cell lines were selected for with 500 ug/mL G418 until all cells in the control were dead and clones were then picked. The Gal4/Elk-1 reporter can be activated through Gq or Gi. To confirm coupling via Gi, cells were treated with pertussis toxin treatment which ADP-ribosylates Gαi preventing its interaction with receptors (Bokoch et al., J. Biol. Chem 258:2072 (1983)). Pertussis toxin has no known effect on Gαq.
(§2) Host cells and those transfected with the GPR40 construct were plated in a 96-well tissue culture plate at 2000 cells/well in DMEM/F12 supplemented with 5% FBS. After 48 hours at 37° C. at 5% CO2, the cells were placed in serum-free DMEM/F12 in the presence or absence of 1 ug/ml pertussis toxin. After 16 hours at 37° C., 5% CO2 the host cells were treated with: lysophosphatidic acid (oleoyl) (LPA) which couples through GαI to activate MAP kinase (Hordijk et al., J. Biol. Chem. 269: 645 (1994)); thrombin which couples through Gαi and Gαq (Hung et al., J. Biol. Chem. 267:20831 (1992)); or 5,8,11-Eicosatriynoic acid (a GPR40 ligand), at the concentrations indicated. The host cells containing the GPR40 construct were stimulated with or 5,8,11-Eicosatriynoic acid at the concentrations indicated. Controls for lysophosphatidic acid contained 0.5% DMSO; controls for […] contained 0.05% ethanol. Luciferase activity was assayed 4 hours after treatment using a luciferase reporter gene assay kit available under the trademark LUCLITE®, as per manufacturers instructions (Packard Bioscience).

[2] = tested on: CHO cells expressing CRE-luciferase with no receptor; assay: CRE-luciferase reporter in CHO cells containing reporter only (no receptor); details: 4 hours of treatment
Protocol: (§3) Specific coupling was determined in mammalian cells using transient expression of a CRE-luciferase reporter for Gαs and stable cell-lines containing Gal4/ELK-1-luciferase reporter for Gαq/Gαi. Wild-type CHO cells were co-transfected with 3×-CRE-luciferase reporter vector and various amounts of an expression vector for GPR40. The control cells were transfected with reporter vector only. The reporter gene plasmids were produced in house but similar vectors can be purchased from Stratagene ([…]®). Cells were plated in a 24 well tissue culture plate at 1×10^4 cells/well in DMEM/F12 supplemented with 5% FBS. After 72 hours at 37° C., 5% CO2, the cells were transfected using the liposomal transfection reagent sold under the trademark LIPOFECTAME® and with the following combinations of plasmids: • A-3×-CRE-Luc • B-3×-CRE-Luc+CMV-GPR40 • C-3×-CRE-Luc+CMV-Gs coupled receptor The concentration of reporter plasmid for all wells was 0.15 μg/well. Concentrations of receptor plasmids were 0.5, 1.0, 5.0, 10.0 ng/well. After 24 hrs Cells containing 1 ng/well of receptor plasmid or no DNA control and CRE-Luc reporter were treated with fatty acid or the calcitonin which is known to act through a Gs-coupled receptor (Chakraborty, Science 251: 1078 (1991)) at concentrations indicated. […]

human GPR40 [3] = molecular target: T1, human GPR40; assay: FLIPR intracellular calcium response in HEK-293 cells transiently expressing GPR40; set-up: expressed in transfected cells; host or cells: HEK-293 (transient); details: GPR40 stimulation
From the text: The Fluorometric Imaging Plate Reader (FLIPR™, Molecular Devices, UK) measures intracellular fluorescense in multi-well microplates. Where a GPCR couples to a calcium signalling pathway, the FLIPR system can be used with cells expressing the G-protein coupled receptor and containing calcium-sensitive fluorescent dyes, to monitor the intracellular calcium flux that occurs after activation of the G-coupled receptor. See, e.g., Kirk et al., J. Biomolecular Screening, 1:75 (1996).
(§4) The assays utilized a G-protein cocktail (+GPC) that contained chimeric and promiscuous G-proteins, as is known in the art of screening orphan G-protein coupled receptors.

human GPR40 [4] = molecular target: T1, human GPR40; assay: CRE-luciferase reporter in CHO cells co-transfected with GPR40 expression vector; set-up: expressed in transfected cells; details: CHO cells containing GPR40 and CRE-Luc reporter, 4 hours of treatment
Protocol: as §3

[5] = tested on: CHO cells containing GAL4/Elk1-luciferase reporter constructs; assay: GAL4/Elk-1-luciferase reporter in host CHO cells (reporter only), with and without pertussis toxin; details: for agonist-stimulated reporter activity after pertussis toxin treatment: 1 ug/ml pertussis toxin 16 hours
From the text: as §1, §2

HLTEX11 = assay: FLIPR calcium response in HEK-293 cells transiently expressing the 7TM receptor HLTEX11; details: HEK-293 cells transiently expressing HLTEX11, + G-protein cocktail
From the text: as §4

PGRW = assay: FLIPR calcium response in HEK-293 cells transiently expressing the 7TM receptor PGRW (GPRW); details: HEK-293 cells transiently expressing PGRW, + G-protein cocktail
From the text: as §4

[6] = FLIPR, Additional Fatty Acid Compounds, read-out: EC50 uM
[7] = FLIPR, Additional Fatty Acid Compounds, read-out: EC50
[8] = FLIPR, first of up to 3 experiments, read-out: Mean pEC50 (converted)
[9] = FLIPR, second of up to 3 experiments, read-out: Mean pEC50 (converted)
[10] = FLIPR, third experiment, read-out: Mean pEC50 (converted)
[11] = Mean pEC50 of 3 expts, FLIPR, overall mean (n = 1 or 2 where stated)
[12] = Mean pEC50, FLIPR, first of up to 3 experiments
[13] = Mean pEC50, FLIPR, second of up to 3 experiments
[14] = EC50 uM, FLIPR, Additional Fatty Acid Compounds
[15] = EC50 (M), FLIPR, Additional Fatty Acid Compounds

T1 sequence (O14842 whole entry, the tested form may be a part): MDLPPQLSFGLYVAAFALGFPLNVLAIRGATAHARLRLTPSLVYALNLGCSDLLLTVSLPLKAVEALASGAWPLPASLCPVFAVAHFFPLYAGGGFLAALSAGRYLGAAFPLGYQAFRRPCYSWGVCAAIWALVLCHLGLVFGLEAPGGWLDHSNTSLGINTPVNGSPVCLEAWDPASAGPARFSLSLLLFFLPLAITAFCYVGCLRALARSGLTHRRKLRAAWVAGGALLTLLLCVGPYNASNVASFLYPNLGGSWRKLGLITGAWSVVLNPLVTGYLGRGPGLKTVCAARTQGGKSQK

| Compound | EC50 (human GPR40 [3]; [6]) [µM] | EC50 (human GPR40 [3]; [7]) [µM] | EC50 (human GPR40 [3]; [8]) [µM] | EC50 (human GPR40 [3]; [9]) [µM] | EC50 (human GPR40 [3]; [10]) [µM] | EC50 (human GPR40 [3]; [11]) [µM] | other results |
| --- | --- | --- | --- | --- | --- | --- | --- |
| CCCCCCCCC#CCC#CCC#CCCCC(=O)O [5,8,11-Eicosatriynoic acid] | 1.7 | 1.7 | – | – | – | – | agonist-stimulated luciferase activity after pertussis toxin treatment (human GPR40 [1]; cells containing GPR40, 1 ug/ml pertussis toxin 16 hours): not inhibited; luciferase activity compared to basal (GAL4/Elk-1 reporter) (human GPR40 [1]; cells containing GPR40, 4 hours after treatment): increased luciferase activity; luciferase production (CRE-luciferase) [2]: no effect; luciferase production (CRE-luciferase) (human GPR40 [4]): no effect; luciferase production (GAL4/Elk-1 reporter) ([5]; 4 hours after treatment): no effect |
| C#CCCCCCCCCCCCCCCCC(=O)O [17-Octadecynoic acid] | 7.6 | 7.58 | – | – | – | – | – |
| CCCCC/C=C\C/C=C\C/C=C\C/C=C\CCCC(=O)O [Arachidonic acid] | 9.1 | 9.12 | 18.2 | 12.9 | 7.24 | 12 | – |
| CCCCCCCCCCCCCCCCCCCCCC(=O)O [Behenic acid] | – | – | – | 49 | – | 50.1 | EC50 (human GPR40 [3]; [12]): 51.3 µM |
| CCCCCCCCCC(=O)O [Capric acid] | – | – | 18.2 | 11 | 14.5 | 14.1 | – |
| CCCCCCCC(=O)O [Caprylic acid] | – | – | – | – | – | 38 | EC50 (human GPR40 [3]; [12]): 56.2 µM; EC50 (human GPR40 [3]; [13]): 26.3 µM |
| CCCCC/C=C\C/C=C\C/C=C\CCCCCCC(=O)O [Dihomo-gamma-linolenic acid] | 7.2 | 7.24 | – | – | – | – | – |
| CC/C=C\C/C=C\C/C=C\C/C=C\C/C=C\CCCCCC(=O)O [Docosa-7Z,10Z,13Z,16Z,19Z-pentaenoic acid] | 4.7 | 4.68 | – | – | – | – | – |
| CC/C=C\C/C=C\C/C=C\CCCCCCCCCCCC(=O)O [Docosa-13Z,16Z,19Z-trienoic acid] | 6.8 | 6.76 | – | – | – | – | – |
| CC/C=C\C/C=C\C/C=C\C/C=C\C/C=C\CCCC(=O)O [Eicosa-5Z,8Z,11Z,14Z,17Z-pentaenoic acid] | 6.8 | 6.76 | – | – | – | – | – |
| CCCCCCCCCCC/C=C\C/C=C\CCCC(=O)O [Eicosa-5Z,8Z-dienoic acid] | 7.8 | 7.76 | – | – | – | – | – |
| CC/C=C\C/C=C\C/C=C\CCCCCCCCCC(=O)O [Eicosa-11Z,14Z,17Z-trienoic acid] | 11.2 | 11.2 | – | – | – | – | – |
| CCCCC/C=C\C/C=C\CCCCCCCCCC(=O)O [Eicosa-11Z,14Z-dienoic acid] | 10.7 | 10.7 | – | – | – | – | – |
| CCCCCCCC/C=C/CCCCCCCC(=O)O [Elaidic acid] | – | – | – | – | – | – | FLIPR calcium response (HLTEX11): No response was detected; FLIPR calcium response (PGRW): No response was detected |
| CCCCCCCCCCCCCCCCCCCCC(=O)O [Heneicosanoic acid] | – | – | 35.5 | 29.5 | – | 32.4 | – |
| CCCCCCCCCCCCCCCCC(=O)O [Heptadecanoic acid] | – | – | 13.8 | 10.2 | 7.76 | 10.2 | – |

| Compound | EC50 (human GPR40 [3]; [6]) [µM] | EC50 (human GPR40 [3]; [7]) [µM] | EC50 (human GPR40 [3]; [8]) [µM] | EC50 (human GPR40 [3]; [9]) [µM] | EC50 (human GPR40 [3]; [10]) [µM] | EC50 (human GPR40 [3]; [11]) [µM] | other results |
| --- | --- | --- | --- | --- | --- | --- | --- |
| CCCCCCC(=O)O [Heptanoic acid] | – | – | 46.8 | 60.3 | – | 52.5 | – |
| CCCCCCCC/C=C\CCCCCCCC(=O)OC[C@@H](O)COP(=O)(O)O [LPA, lysophosphatidic acid (oleoyl)] | – | – | – | – | – | – | agonist-stimulated reporter activity after pertussis toxin treatment [5]: completely abolished |
| CCCCCCCCCCCC(=O)O [Lauric acid] | – | – | 17.8 | 11.7 | 8.51 | 12 | – |
| CCCCC/C=C\C/C=C\CCCCCCCC(=O)O [Linoleic acid] | – | – | – | – | – | 18.6 | EC50 (human GPR40 [3]; [14]): 9.5 µM; EC50 (human GPR40 [3]; [15]): 9.54 µM; EC50 (human GPR40 [3]; [12]): 16.6 µM; EC50 (human GPR40 [3]; [13]): 20.9 µM |
| CC/C=C\C/C=C\C/C=C\CCCCCCCC(=O)O [Linolenic acid] | – | – | – | – | – | 12.6 | EC50 (human GPR40 [3]; [14]): 5.5 µM; EC50 (human GPR40 [3]; [15]): 5.5 µM; EC50 (human GPR40 [3]; [12]): 11.7 µM; EC50 (human GPR40 [3]; [13]): 21.9 µM; EC50 (human GPR40 [3]; Mean pEC50, FLIPR, third experiment): 7.59 µM |
| CCCCCCCCCCCCCCCCCCC(=O)O [Nonadecanoic acid] | – | – | 26.3 | 34.7 | – | 30.2 | – |
| CCCCCCCCC(=O)O [Nonanoic acid] | – | – | – | – | – | 39.8 | EC50 (human GPR40 [3]; [12]): 69.2 µM; EC50 (human GPR40 [3]; [13]): 23.4 µM |
| CCCCCCCCCCCCCCCC(=O)O [Palmitic acid] | – | – | 8.32 | 3.09 | 5.01 | 5.01 | – |
| CCCCCC/C=C\CCCCCCCC(=O)O [Palmitoleic acid] | – | – | 15.1 | 15.5 | 11 | 13.8 | – |
| CCCCCCCCCCCCCCC(=O)O [Pentadeconoic acid] | – | – | 10.7 | 4.37 | 6.17 | 6.61 | – |
| CCCCCCCCCCCCCCCCCC(=O)O [Stearic acid] | – | – | 20 | 16.6 | 14.1 | 16.6 | – |
| CCCCCCCCCCC(=O)O [Undecanoic acid] | – | – | 25.1 | 21.9 | 14.8 | 20 | – |
| CCC=CCC=CCC=CCC=CCC=CC/C=C\CCC(=O)O [cis-4,7,10,13,16,19-Docosahexaenoic acid] | 1.6 | 1.62 | 6.61 | 2.95 | 3.98 | 4.27 | – |
| calcitonin | – | – | – | – | – | – | luciferase production (CRE-luciferase) [2]: increase in luciferase production; luciferase production (CRE-luciferase) (human GPR40 [4]): increase in luciferase production |
| pertussis toxin | – | – | – | – | – | – | decrease of basal reporter activity following pertussis toxin treatment (human GPR40 [1]; GPR40 clones, 1 ug/ml pertussis toxin): up to 70% |
| thrombin | – | – | – | – | – | – | agonist-stimulated reporter activity after pertussis toxin treatment [5]: only partially attenuated |
